“And” between values parts separate entries of the source, which are not always exact repeats. Identical values can stand only once. “Also recorded” adds a separate entry of the source. Like-named read-outs stand apart in the source and are kept apart here. Marks after values point to notes of the source that are not given here.
How the values were obtained:
[1] = system: VEGFA-induced mechanical allodynia in rats; assay: VEGFA-induced mechanical allodynia (von Frey), intraplantar injection; assay type: in vivo, rat; details: 30 μM coinjected with VEGFA165 10 nM, 50 μL intraplantar; male and female rats
Experimental: The procedure was performed as reported previously. Briefly, rats were gently restrained in a fabric cloth and given an intraplantar injection in the hind-paw containing VEGFA165 (10 nM) and compound (EG00229 or 12h, at 30 or 10 μM) alone or in combination in 50 μL of PBS vehicle (NaCl 137 mM, KCl 2.5 mM, Na2HPO4 10 mM, and KH2PO4 1.8 mM), using a 31G needle.

[2] = molecular target: T1, NRP1-a1,b1 (Homo sapiens, UniProt O14786); assay: bt-VEGFA cell-free competition binding assay (plate-based)
T1 sequence (O14786 273-427 limits assumed): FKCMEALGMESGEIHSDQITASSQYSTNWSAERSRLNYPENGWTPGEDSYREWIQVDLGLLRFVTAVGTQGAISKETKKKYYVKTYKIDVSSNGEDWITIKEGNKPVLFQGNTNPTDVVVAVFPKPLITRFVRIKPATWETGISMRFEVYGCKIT
Experimental: The assay was conducted as previously described. Briefly, the 96-well plates were precoated with NRP1 protein at 3 μg/mL overnight at 4 °C. On the following day, the plates were treated with blocking buffer (PBS containing 1%1% BSA) and washed three times with wash buffer (PBS containing 0.1% Tween-20). The various concentrations of compounds diluted in PBS containing 1%1% DMSO were added, followed by addition of 0.25 nM of bt-VEGFA165. After 2 h of incubation at room temperature, the plates were washed three times with wash buffer. The bound bt-VEGFA165 to NRP1 was detected by streptavidin– horseradish peroxidase conjugates and the enzyme substrate, and measured using a Tecan Genius plate reader at 450 nm with a reference wavelength at 595 nm. Nonspecific binding was determined in the absence of NRP1-coated wells of the plates.

[3] = molecular target: T2, NRP1 b1 domain (Homo sapiens, UniProt O14786); assay: SPR binding to immobilized NRP1 b1 domain (Biacore 4000, CM5 chip); details: Figure 2B; read-out: KD (kinetics)
T2 construct: with the purified recombinant NRP1 b1 domain immobilized on the chip; inferred from Ni-NTA capture), TEV-cleavable (cleaved yes); made in house; host or cells: E. coli Rosetta (DE3)
T2 sequence (O14786 275-424 limits assumed): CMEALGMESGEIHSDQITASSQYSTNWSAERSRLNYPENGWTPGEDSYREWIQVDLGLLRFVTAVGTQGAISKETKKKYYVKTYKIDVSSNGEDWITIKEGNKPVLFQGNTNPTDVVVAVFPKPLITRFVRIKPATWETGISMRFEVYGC

[4] = Pharmacokinetics in mice, 2 mg/kg iv; assay type: in vivo; details: female, BALB/c, mouse, plasma
Experimental: To test compound drug-like properties, selected compounds with low IC50 were further evaluated for their pharmacokinetic (PK) profile. 6–8 week-old BABL/c female mice were used. Two mg/kg of compounds was formulated in 7.5% DMSO and 92.5% PBS solution and intravenously dosed into the tail vein as a bolus. Blood samples were collected by cardiac puncture at 5, 15, 30, 60, 180, and 240 min post dosing. Plasma samples were prepared by centrifugation at 7000 rpm for 5 min, and supernatants were collected, immediately snap-frozen on dry ice and stored at −20 °C. Samples were analyzed by liquid chromatography-tandem mass spectrometry using electrospray ionization and data was analyzed by WinNonlin software.

[5] = system: P-p38 in human brain endothelial cell line hCMEC/D3; assay: p38 phosphorylation in hCMEC/D3 cells (immunoblotting); assay type: cell-based
Experimental: Cell lysates of the human brain endothelial cell line hCMEC/D3 were prepared in RIPA buffer containing 0.1% SDS, protease inhibitor cocktail 2 and phosphatase inhibitor cocktail (Sigma-Aldrich). Proteins were separated by SDS-PAGE and transferred to nitrocellulose by wet electrotransfer. Membranes were blocked with 5% milk in Tris-buffered saline (TBS) overnight at 4 °C and then incubated with the appropriate primary antibody diluted in TBS containing 0.1% Tween-20 and 1% BSA for 2 h and 30 min at rt; the primary antibodies used were specific for phospho P-p38, p38 (1:1000; Cell Signaling Technology) and GADPH (1:10000; Merck). Membranes were washed with 0.1% Tween-20 in TBS and then incubated with goat antimouse or goat antirabbit horseradish peroxidase (HRP)-conjugated IgG (GE Healthcare) diluted 1:10,000 or 1:5000, respectively, with 0.1% Tween-20, 1% BSA in PBS. Membranes were developed using the ECL reagents (Roche) and images were acquired with the Bio-Rad ChemiDoc MP Imaging System and the Bio-Rad Image Lab software (version 6.0.1). Protein bands were quantified using ImageJ software version 1.52a (NIH Bethesda), whereby signal intensity was normalized to signal intensity from GADPH from the same sample as a loading control. Phosphorylation levels were normalized against the total levels of p38. Densitometric quantification of three independent immunoblots was determined by changes in protein or phosphoprotein content normalized to GADPH total protein loading controls, with values expressed as fold increase. Data are shown as mean ± SD. Statistical analysis included one-way ANOVA with significance levels set at 0.05, followed by posthoc Dunnett’s tests.

[6] = system: total Na+ currents in rat DRG neurons; assay: Whole-cell patch-clamp of Na+ currents in dissociated DRG neurons; assay type: cell-based; details: for V 1/2 activation, total Na+ / V 1/2 inactivation, total Na+: mean ± SEM (n cells)
Experimental: Recordings were obtained from acutely dissociated DRG neurons obtained from female rats as described earlier. Patch-clamp recordings were performed at room temperature (22–24 °C). Currents were recorded using an EPC 10 Amplifier-HEKA (HEKA Elektronik, Ludwigshafen, Germany) linked to a computer with Patchmaster software.
To determine the effect of VEGFA application on voltage-gated sodium currents, we incubated DRG neurons for 30 min with recombinant rat VEGFA, 1 nM (Cat#P4853, Abnova, Taipei, Taiwan) before whole-cell patch-clamp recordings. […] For the control condition, DRG neurons were incubated for 30 min with DMSO at a final concentration of 0.1%.
For Na^+ current (I Na+) recordings, the external solution contained (in mM): 130 NaCl, 3 KCl, 30 tetraethylammonium chloride, 1 CaCl2, 0.5 CdCl2, 1 MgCl2, 10 D-glucose and 10 HEPES (pH 7.3 adjusted with NaOH, and mOsm/L = 315). Patch pipettes were filled with an internal solution containing (in mM): 140 CsF, 1.1Cs-EGTA, 10 NaCl, and 15 HEPES (pH 7.3 adjusted with CsOH, and mOsm/L = 300). Peak Na^+ current was acquired by applying 150 ms voltage steps from – 70 to +60 mV in 5-mV increments from a holding potential of – 60 mV to obtain the current–voltage (I–V) relation.
Normalization of currents to each cell’s capacitance (pF) was performed to allow for collection of current density data. For I–V curves, functions were fitted to data using a nonlinear least-squares analysis. I–V curves were fitted using double Boltzmann functions: f=a+g1/(1+exp((x−V1/21)/k1))+g2/(1+exp(−(x−V1/22)/k2)) where x is the membrane potential, V 1/2 is the midpoint potential and k is the corresponding slope factor for single Boltzmann functions. Double Boltzmann fits were used to describe the shape of the curve, not to imply the existence of separate channel populations. Numbers 1 and 2 simply indicate first and second midpoints; a along with g are fitting parameters.
Activation curves were obtained from the I–V curves by dividing the peak current at each depolarizing step by the driving force according to the equation: G = I/(V mem – E rev), where I is the peak current, V mem is the membrane potential and E rev is the reversal potential. The conductance (G) was normalized against the maximum conductance (G max). Steady-state inactivation (SSI) curves were obtained by applying an H-infinity protocol that consisted of 1-s conditioning prepulses from −120 to +10 mV in 10-mV increments followed by a 200 ms test pulse to +10 mV. Inactivation curves were obtained by dividing the peak current recorded at the test pulse by the maximum current (I max). Activation and SSI curves were fitted with the Boltzmann equation.

IC50 ([2]; 0.25 nM bt-VEGFA165, mean ± SEM, at least three independent experiments, read-out: Competition analysis bt-VEGFA, cell-free NRP1-a1,b1 IC50): 320 ± 40 nM
IC50 ([2]; plate-based assay, Figure 2D, read-out: IC50, competitive inhibition of bt-VEGFA binding to NRP1): 362 nM and < 500 nM
Kd [3]: 346 nM
AUC(0-inf) [4]: 1370 ng·h/mL
AUC(0-t) [4]: 1370 ng·h/mL
Cmax [4]: 5180 ng/mL
Tmax [4]: 4.8 min
Vd [4]: 0.394 L/kg
half-life [4]: 78 min
clearance ([4]; iv, 2 mg/kg): 24.5 mL/min/kg
AUC ([4]; read-out: AUC): 1370 ng·h/mL
SMILES: N=C(N)NCCC[C@H](NC(=O)c1sccc1NS(=O)(=O)c1cc(NCc2csc(N3CCNCC3)n2)cc2cccnc12)C(=O)O.O=CO [Compound 12h, (2S)-5-Guanidino-2-[[3-[[6-[(2-piperazin-1-ylthiazol-4-yl)-methylamino]-8-quinolyl]-sulfonylamino]-thiophene-2-carbonyl]-amino]-pentanoic Acid, Formic Acid]
effect on VEGFA-induced mechanical allodynia (paw withdrawal threshold, AUC 0-6 h) [1]: comparable antinociceptive effects in males and females
p38 phosphorylation when added alone ([5]; 30 μM alone, 5 min): did not induce p38 phosphorylation
effect on VEGFA-induced p38 phosphorylation ([5]; 30 μM, 15 min prior to VEGFA165 stimulation): prevented VEGFA-induced p38 phosphorylation
effect on Na+ currents, alone ([6]; 30 μM alone, 30 min): Neither EG00229 nor 12h alone had any obvious effect
effect on VEGFA-induced increase in Na+ currents and current density ([6]; 30 μM, then VEGFA165 1 nM 30 min, small-sized DRG neurons): equally reduced; also recorded: prevented the VEGFA-mediated increase in total sodium currents
V 1/2 activation, total Na+ ([6]; compound 30 μM + VEGFA): –16.420 ± 0.916 (10) ^b mV
V 1/2 inactivation, total Na+ ([6]; compound 30 μM + VEGFA): –47.632 ± 1.411 (10) mV
V 1/2 activation, total Na+ ([6]; compound alone, 30 μM): –16.819 ± 0.840 (10) ^b mV
V 1/2 inactivation, total Na+ ([6]; compound alone, 30 μM): –52.032 ± 2.123 (10) mV
